Literature values, collected in US9421272B2, “Nanocarrier compositions and methods” (RUTGERS, THE STATE UNIVERSITY OF NEW JERSEY, priority 2009, dated 2016).

Assays:
PepT1 = target: T1, PepT1 (Homo sapiens, UniProt P46059); settings: interaction between valacyclovir and PepT1
T1 sequence (P46059 1-708): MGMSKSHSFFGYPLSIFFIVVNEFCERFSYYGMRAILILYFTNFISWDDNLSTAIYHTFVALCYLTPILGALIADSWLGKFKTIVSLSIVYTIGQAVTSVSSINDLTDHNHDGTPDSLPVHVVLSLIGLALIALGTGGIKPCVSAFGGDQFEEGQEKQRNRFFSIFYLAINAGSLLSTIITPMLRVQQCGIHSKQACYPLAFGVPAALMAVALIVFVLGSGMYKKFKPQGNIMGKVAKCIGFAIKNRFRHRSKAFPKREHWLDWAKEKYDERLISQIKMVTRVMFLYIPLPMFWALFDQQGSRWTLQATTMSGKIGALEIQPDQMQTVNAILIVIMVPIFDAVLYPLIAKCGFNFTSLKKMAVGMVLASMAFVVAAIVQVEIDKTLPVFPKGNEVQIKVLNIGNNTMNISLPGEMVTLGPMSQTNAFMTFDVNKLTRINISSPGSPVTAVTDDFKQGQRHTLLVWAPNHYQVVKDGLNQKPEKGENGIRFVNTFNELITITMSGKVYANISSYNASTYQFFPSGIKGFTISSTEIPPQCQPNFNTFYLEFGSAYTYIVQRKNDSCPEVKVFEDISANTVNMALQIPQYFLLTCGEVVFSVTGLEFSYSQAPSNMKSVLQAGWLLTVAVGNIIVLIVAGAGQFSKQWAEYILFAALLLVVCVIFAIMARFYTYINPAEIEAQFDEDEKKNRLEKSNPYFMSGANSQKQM

[1] = disulfide bond; relative to cysteamine linker
[2] = compared to the counterpart with a 5 kDa linear PEG

Molecule: CC(C)[C@H](N)C(=O)OCCOCn1cnc2c(=O)[nH]c(N)nc21 [valacyclovir]
- increase in the bioavailability of acyclovir (PepT1): three to four-fold increase

Molecule: CC(C)(S)CN [1-amino-2-methyl-2-propanethiol]
- degradation rate, slower than the corresponding less hindered cysteamine linker [1]: about 100 times

B1: branched 10 kDa PEG to asparaginase: asparaginase bound to a branched 10 kDa PEG (conjugate, UniProt P00805 23-348, looked up)
L-asparaginase 2: LPNITILATGGTIAGGGDSATKSNYTVGKVGVENLVNAVPQLKDIANVKGEQVVNIGSQDMNDNVWLTLAKKINTDCDKTDGFVITHGTDTMEETAYFLDLTVKCDKPVVMVGAMRPSTSMSADGPFNLYNAVVTAADKASANRGVLVVMNDTVLDGRDVTKTNTTDVATFKSVNYGPLGYIHNGKIDYQRTPARKHTSDTPFDVSKLNELPKVGIVYNYANASDLPAKALVDAGYDGIVSAGVGNGNLYKSVFDTLATAAKTGTAVVRSSRVPTGATTQDAEVDDAKYGFVASGTLNPQKARVLLQLALTQTKDPQQIQQIFNQY
modifications: branched 10 kDa PEG
- reduction of antigenicity [2]: 10 fold
